# Measured values reported in patent EP0882010B1, “PHARMACEUTICAL AGENTS CONTAINING PERFLUOROALKYL-CONTAINING METAL COMPLEXES AND THE USE THEREOF IN TUMOUR THERAPY AND INTERVENTIONAL RADIOLOGY” (SCHERING AKTIENGESELLSCHAFT, priority 1996, dated 1997).
# What was measured:
# [1] = T1 relaxivity at 20 MHz, 37°C; type: physicochemical
# Description: c) Gadolinium-Komplex von 10-[2-Hydroxy-4-aza-5-oxo-7-aza-7-(perfluoroctylsulfonyl)-nonyl]-1,4,7-tris(carboxymethyl)-1,4,7,10-tetraazacyclododecan 10 g (17,09 mmol) der Titelverbindung aus Beispiel 1b) und […] (18,79 mmol) N-Hydroxysuccinimid werden in einer Mischung aus 50 ml Dimethylformamid/50 ml Chloroform gelöst. Bei 0°C gibt man 3,88 g (18,79 mmol) Dicyclohexylcarbodiimid zu und rührt 1 Stunde bei 0°C, anschließend 3 Stunden bei Raumtemperatur. Man kühlt erneut auf 0°C und gibt 5,19 g (51,27 mmol) Triethylamin/50 ml 2-Propanol zu. Anschließend werden 10,78 g (18,79 mmol) Gadolinium-Komplex von 10-(3-Amino-2-hydroxy-propyl)-1,4,7-tris(carboxymethyl)-1,4,7,10-tetraazacyclododecan (WO 95/17451) gelöst in 50 ml Wasser zugegeben und 3 Stunden bei Raumtemperatur gerührt. Man dampft zur Trockne ein, nimmt den Rückstand in einer Mischung aus 200 ml Methanol/100 ml Chloroform auf und filtriert vom Dicyclohexylharnstoff ab. Das Filtrat wird zur Trockne eingedampft und durch RP-Chromatographie gereinigt (RP-18/Laufmittel: Gradient aus Wasser/n-Propanol/ Acetonitril). Ausbeute: 16,37 g (78 % d. Th.) eines farblosen glasigen Feststoffes Wassergehalt: 7,1 % T1-Relaxivität (L/mmol·sec) bei 20 MHz, 37°C: 41 (Wasser) 49 (Humanplasma)
# e) Mangan-Komplex von 10-[2-Hydroxy-4-aza-5-oxo-7-aza-7-(perfluoroctylsulfonyl)-nonyl]-1,4,7-tris(carboxymethyl)-1,4,7,10-tetraazacyclododecan (als Natriumsalz) 5 g (5,07 mmol) der Titelverbindung aus Beispiel ld) werden in 100 ml Wasser gelöst und 0,58 g (5,07 mmol) Mangan(II) -carbonat zugegeben. Man rührt3 Stunden bei 80°C. Die Lösung wird filtriert und das Filtrat mit 1 N Natronlauge auf pH 7,2 gestellt, anschließend wird gefriergetrocknet. Ausbeute: 5,87 g (quantitativ) eines farblosen amorphen Pulvers Wassergehalt: 8,4 % T1-Relaxivität (L/mmol·sec) bei 20 MHz, 37°C: 2,7 (Wasser) 4,2 (Humanplasma)
# c) Gadolinium-Komplex von 10-[2-Hydroxy-4-aza-5-oxo-7-oxa-10,10,11,11,12,12,13,13,14,14,15,15,16,16,17,17,17-heptadecafluor-heptadecyl]-1,4,7-tris(carboxymethyl)-1,4,7,10-tetraazacyclododecan 7,0 g (13,41 mmol) der Titelverbindung aus Beispiel 2b) und 1,70 g (14,75 mmol) N-Hydroxysuccinimid werden in einer Mischung aus 30 ml Dimethylformamid/ 20 ml Chloroform gelöst. Bei 0°C gibt man 3,04 g (14,75 mmol) Dicyclohexylcarbodiimid zu und rührt 1 Stunde bei 0°C, anschließend 3 Stunden bei Raumtemperatur. Man kühlt erneut auf 0°C und gibt 4,48 g (44,25 mmol) Triethylamin/50 ml 2-Propanol zu. Anschließend werden 8,46 g (14,75 mmol) Gadolinium-Komplex von 10-(3-Amino-2-hydroxy-propyl)-1,4,7-tris(carboxymethyl)-1,4,7,10-tetraazacyclododecan gelöst in 40 ml Wasser zugegeben und 3 Stunden bei Raumtemperatur gerührt. Man dampft zur Trockne ein, nimmt den Rückstand in einer Mischung aus 100 ml Methanol/30 ml Chloroform auf und filtriert vom Dicyclohexylharnstoff ab. Das Filtrat wird zur Trockne eingedampft und durch RP-Chromatographie gereinigt (RP-18/Laufmittel: Gradient aus Wasser/n-Propanol/Acetonitril). Ausbeute: 11,8 g (75 % d. Th.) eines farblosen glasigen Feststoffes Wassergehalt: 8,2 % T1-Relaxivität (L/mmol·sec) bei 20 MHz, 37°C: 19 (Wasser) 33 (Humanplasma)
# c) Gadolinium-Komplex von 10-[-2Hydroxy-4-oxa-1H,1H,2H,3H,3H,5H,5H,6H,6H-perfluor-tetradecyl]-1,4,7-tris(carboxymethyl)-1,4,7,10-tetraazacyclododecan 10 g (11,54 mmol) der Titelverbindung aus Beispiel 3b) werden in einer Mischung aus 100 ml Wasser/50 ml 2-Propanol gelöst und 2,09 g (5,77 mmol) Gadoliniumoxid zugegeben. Man rührt 3 Stunden bei 80°C. Die Lösung wird filtriert und im Vakuum zur Trockne eingedampft. Ausbeute: 12,48 g (quantitativ) eines glasigen Feststoffes Wassergehalt: 5,6 % T1-Relaxivität (L/mmol·sec) bei 20 MHz, 37°C: 15,2 (Wasser) 27,5 (Humanplasma)
# [2] = gut löslich at this concentration, free-flowing solution
compound,measurement,setting,value
"O=C([O-])CN1CCN(CC(=O)[O-])CCN(CC(O)COCCC(F)(F)C(F)(F)C(F)(F)C(F)(F)C(F)(F)C(F)(F)C(F)(F)C(F)(F)F)CCN(CC(=O)[O-])CC1.[Gd+3] (stereo not shown) [3c), Gadolinium-Komplex von 10-[-2Hydroxy-4-oxa-1H,1H,2H,3H,3H,5H,5H,6H,6H-perfluor-tetradecyl]-1,4,7-tris(carboxymethyl)-1,4,7,10-tetraazacyclododecan]",T1-Relaxivität,[1]; Humanplasma,"27,5 L/mmol·sec"
same,T1-Relaxivität,[1]; Wasser,"15,2 L/mmol·sec"
CCN(CCCCCCCCCCC(=O)NCC(O)CN1CCN(CC(=O)[O-])CCN(CC(=O)[O-])CCN(CC(=O)[O-])CC1)S(=O)(=O)C(F)(F)C(F)(F)C(F)(F)C(F)(F)C(F)(F)C(F)(F)C(F)(F)C(F)(F)F.[Dy+3] (stereo not shown) [Beispiel 30f)],Applizierbarkeit der Lösung,"100 mmol/L in water, by hand or infusion pump through a 20 cm, 0.58 mm Øi tube at 160 µL/min",problemlos
same,Konsistenz der Lösung,100 mmol/L solution in water,klar durchsichtig und besitzt eine gelartig feste Konsistenz
same,Konsistenz mit Zusatz von Harnstoff,"8 mol/L Harnstoff (final), also at substance concentration 400 mmol/L",frei fließende Lösung
same,Löslichkeit in 96% Ethanol,"96% Ethanol, free-flowing solution",> 500 mmol/L
same,Löslichkeit in Rinderplasma,"Rinderplasma, solution of comparable consistency",ebenso löslich wie in reinem Wasser
same,Einfluß auf die Konsistenz der Zubereitung,"addition of 10 mmol/L HCl or NaOH, or 3 mol/L NaCl",keinen Einfluß auf die Konsistenz
same,Veränderung der Konsistenz durch Triton X-100,"aqueous formulation, Triton X-100, 1.7%",Verflüssigung der gelartigen Konsistenz
same,Veränderung der Konsistenz durch Tween 80,"aqueous formulation, Tween 80, 4.6% final concentration",keine Veränderung der Konsistenz
same,Löslichkeit in 66% DMSO/Wasser,[2],≥ 150 mmol/L
same,Löslichkeit in 66% Propylenglycol/Wasser,[2],≥ 250 mmol/L
same,concentration below which a frei fließende Lösung results,"in water, printed as 'Unterhalb von etwa'",10000 to 20000 µM
same,Löslichkeit in reinem DMSO,pure DMSO,praktisch unlöslich
same,Löslichkeit in reinem Propylenglycol,pure Propylenglycol,praktisch unlöslich
"CCN(CC(=O)NCC(O)CN1CCN(CC(=O)[O-])CCN(CC(=O)[O-])CCN(CC(=O)[O-])CC1)S(=O)(=O)C(F)(F)C(F)(F)C(F)(F)C(F)(F)C(F)(F)C(F)(F)C(F)(F)C(F)(F)F.[Mn+2].[Na+] (stereo not shown) [Beispiel 1e), Mangan-Komplex von 10-[2-Hydroxy-4-aza-5-oxo-7-aza-7-(perfluoroctylsulfonyl)-nonyl]-1,4,7-tris(carboxymethyl)-1,4,7,10-tetraazacyclododecan (als Natriumsalz)]",T1-Relaxivität,[1]; Humanplasma,"4,2 L/mmol·sec"
same,T1-Relaxivität,[1]; Wasser,"2,7 L/mmol·sec"
"O=C([O-])CN1CCN(CC(=O)[O-])CCN(CC(O)CNC(=O)COCCC(F)(F)C(F)(F)C(F)(F)C(F)(F)C(F)(F)C(F)(F)C(F)(F)C(F)(F)F)CCN(CC(=O)[O-])CC1.[Gd+3] (stereo not shown) [2c), Gadolinium-Komplex von 10-[2-Hydroxy-4-aza-5-oxo-7-oxa-10,10,11,11,12,12,13,13,14,14,15,15,16,16,17,17,17-heptadecafluor-heptadecyl]-1,4,7-tris(carboxymethyl)-1,4,7,10-tetraazacyclododecan]",T1-Relaxivität,[1]; Humanplasma,33 L/mmol/s
same,T1-Relaxivität,[1]; Wasser,19 L/mmol/s
